Key:
[1] = Stability of NGP-1 in artificial digestive juices (HPLC-DAD); type: in vitro ADME
Text: Esterification is the predominant reaction used for the generation of prodrugs, owing to the facile hydrolysis of esters by various and ubiquitous esterases present in the various matrices. However, the presence of esters, particularly cyclic lactones, may result in instability in acidic, basic, or esterase environments. In this study, HPLC-DAD was employed to assess the stability of NGP-1 in different artificial digestive juices. The test samples were collected at various time intervals subsequent to dissolving NGP-1 in artificial gastric juice (diluted HCl with pepsin, pH = 1.5) and artificial intestinal juice (PBS with trypsin, pH = 6.8).
Mobile phase A consisted of a phosphoric acid solution, while mobile phase B consisted of ACN. Gradient elution was employed to separate the components under the following conditions: 0–4 min, 30–50% B; 4–10 min, 50% B. The specific parameters for liquid chromatography are presented in Table 2. […] Then, the content of the objective analytes in each sample was calculated using the external standard method.

[2] = Pharmacokinetic study in rats via gavage administration, plasma GS441 by LC-MS/MS; type: in vivo, Sprague-Dawley rats; conditions: equimolar doses
Method: A pharmacokinetic study was carried out in vivo using Sprague-Dawley rats to assess the behavior of NGP-1 when administered orally through the gastrointestinal route. The rats were randomly categorized into two groups (n = 6) and subjected to a 12 h overnight fast prior to oral administration. […] After administration, 0.5 mL of orbital blood was collected at specific time intervals in an EP tube with heparin moisturizing.
All the blood samples were promptly centrifuged at 4 °C to separate the upper plasma. A volume of 50 µL of plasma was subsequently transferred to a tube pre-filled with 450 µL of protein precipitant (H2O:ACN:MeOH = 1:4:4 containing 20 ng/mL of QX). […] After thorough mixing, the samples underwent high-speed centrifugation. The supernatants were extracted and centrifugated again. The resulting supernatants were collected and transferred into a vial for subsequent analysis.
The AB SCIEX QTRAP®4500 instrument, which comprised an LC system (ExionLC^TM, SCIEX, Framingham, MA, USA) and a triple-quadrupole mass spectrometer with an ESI interface, was used for the experiment. […] The data were acquired and analyzed using Analyst 1.7.3 coupled with MultiQuant 3.0.3 (SCIEX).

several viruses = conditions: in vitro; cited from earlier work

Row | Structure (SMILES) | Degradation rate in artificial gastric juice ([1]; AGJ, diluted HCl with pepsin, pH = 1.5) | Stability in artificial intestinal juice ([1]; AIJ, PBS with trypsin, pH 6.8) | AUC0–∞ of converted GS441 relative to directly administered GS441 [2] | Frel / oral bioavailability of NGP-1 relative to GS441 [2] | EC50 comparison GS441 vs RDV (several viruses)
1 | CC(C)C(=O)OC[C@H]1O[C@@](C#N)(c2ccc3c(N)ncnn23)[C@@H]2OC(=O)O[C@@H]21 [NGP-1] | accelerate significantly | relatively stable | approximately four | approximately four and four | –
2 | CCC(CC)COC(=O)[C@H](C)N[P@](=O)(OC[C@H]1O[C@@](C#N)(c2ccc3c(N)ncnn23)[C@H](O)[C@@H]1O)Oc1ccccc1 [RDV, remdesivir] | – | – | – | – | more potent
3 | N#C[C@@]1(c2ccc3c(N)ncnn23)O[C@H](CO)[C@@H](O)[C@H]1O [GS441] | – | – | – | – | higher EC50 than RDV
